Results on 15 compounds are retold here after ChEMBL document CHEMBL1909046, “DrugMatrix in vitro pharmacology data”.

What is called IC50 is the concentration needed to halve the response being measured.

The target of series [1] is 5-hydroxytryptamine receptor 4 (Cavia porcellus, UniProt O70528). The class given is cell membranes, Dunkin-Hartley, Striatum, Membrane. Further: in other assays of this panel Not Active means under 50% inhibition at 10 µM.
Series [2] concerns the target T1, Thromboxane-A synthase (Homo sapiens, UniProt P24557).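 Further: enzyme inhibition assay with PGH2 supplied as substrate; in other assays of this panel Not Active means under 50% inhibition at 10 µM.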
T1 sequence (P24557 whole entry): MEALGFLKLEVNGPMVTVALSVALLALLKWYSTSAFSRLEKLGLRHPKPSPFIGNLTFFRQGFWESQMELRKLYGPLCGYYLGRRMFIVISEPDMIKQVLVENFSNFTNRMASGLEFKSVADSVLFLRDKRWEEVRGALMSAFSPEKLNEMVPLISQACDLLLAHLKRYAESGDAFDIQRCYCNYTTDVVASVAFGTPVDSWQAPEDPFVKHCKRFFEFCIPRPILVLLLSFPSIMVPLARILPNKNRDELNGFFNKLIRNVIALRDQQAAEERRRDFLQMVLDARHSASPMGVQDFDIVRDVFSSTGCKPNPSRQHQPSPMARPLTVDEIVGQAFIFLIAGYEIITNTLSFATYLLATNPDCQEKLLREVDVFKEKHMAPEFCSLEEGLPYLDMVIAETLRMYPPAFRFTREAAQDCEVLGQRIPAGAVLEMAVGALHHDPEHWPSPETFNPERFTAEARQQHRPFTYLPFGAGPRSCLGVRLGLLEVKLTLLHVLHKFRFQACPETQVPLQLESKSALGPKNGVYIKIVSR
Kind of series: biochemical. It counts as tissue-based, Platelet.

The target of series [3] is Vasopressin V1a receptor (Homo sapiens, UniProt P37288). It counts as cell membranes, Membrane. The settings on record: hek293. Further: in other assays of this panel Not Active means under 50% inhibition at 10 µM.
Vasopressin V1a receptor, sequence (P37288 whole entry): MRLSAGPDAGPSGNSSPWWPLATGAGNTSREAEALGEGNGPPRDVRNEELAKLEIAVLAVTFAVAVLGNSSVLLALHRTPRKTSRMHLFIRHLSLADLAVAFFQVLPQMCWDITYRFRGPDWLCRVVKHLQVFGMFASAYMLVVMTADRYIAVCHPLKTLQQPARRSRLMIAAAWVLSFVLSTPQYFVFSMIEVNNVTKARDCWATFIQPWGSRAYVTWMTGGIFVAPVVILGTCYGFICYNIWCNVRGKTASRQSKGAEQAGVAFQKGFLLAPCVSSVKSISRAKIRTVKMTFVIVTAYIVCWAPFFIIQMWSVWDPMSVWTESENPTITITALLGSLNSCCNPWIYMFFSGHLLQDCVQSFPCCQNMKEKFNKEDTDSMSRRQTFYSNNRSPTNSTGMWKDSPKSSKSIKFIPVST
The target in series [4] is T2, D(4) dopamine receptor (Homo sapiens, UniProt P21917).
T2 sequence (P21917 whole entry): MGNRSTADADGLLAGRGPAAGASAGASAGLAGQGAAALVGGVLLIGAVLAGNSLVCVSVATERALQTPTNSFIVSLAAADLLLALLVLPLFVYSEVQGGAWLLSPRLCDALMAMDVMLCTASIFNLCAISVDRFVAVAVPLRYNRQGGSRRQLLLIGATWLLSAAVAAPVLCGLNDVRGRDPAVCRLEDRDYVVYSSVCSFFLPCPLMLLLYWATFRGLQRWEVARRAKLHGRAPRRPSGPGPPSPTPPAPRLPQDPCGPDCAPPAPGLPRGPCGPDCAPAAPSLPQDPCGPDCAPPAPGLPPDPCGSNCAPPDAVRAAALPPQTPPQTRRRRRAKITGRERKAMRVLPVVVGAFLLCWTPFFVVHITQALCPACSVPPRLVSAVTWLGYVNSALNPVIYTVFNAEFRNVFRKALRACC
Kind of series: DRUGMATRIX: Dopamine D4.2 radioligand binding (ligand: [3H] Spiperone). The class given is cell membranes, CHO-K1, Membrane. As to conditions: cho-k1; Not Active = under 50% inhibition at 10 µM.

The nature of series [5]: DRUGMATRIX: GABAA, Chloride Channel, TBOB radioligand binding (ligand: [3H] TBOB). The class given is cell membranes, Rattus norvegicus, Wistar, Cerebral cortex, Membrane. The settings on record: Not Active = under 50% inhibition at 10 µM.
For series [6], the target named is T3, Neuropeptide Y receptor type 1 (Homo sapiens, UniProt P25929). Further: in other assays of this panel Not Active means under 50% inhibition at 10 µM.
T3 sequence (P25929 whole entry): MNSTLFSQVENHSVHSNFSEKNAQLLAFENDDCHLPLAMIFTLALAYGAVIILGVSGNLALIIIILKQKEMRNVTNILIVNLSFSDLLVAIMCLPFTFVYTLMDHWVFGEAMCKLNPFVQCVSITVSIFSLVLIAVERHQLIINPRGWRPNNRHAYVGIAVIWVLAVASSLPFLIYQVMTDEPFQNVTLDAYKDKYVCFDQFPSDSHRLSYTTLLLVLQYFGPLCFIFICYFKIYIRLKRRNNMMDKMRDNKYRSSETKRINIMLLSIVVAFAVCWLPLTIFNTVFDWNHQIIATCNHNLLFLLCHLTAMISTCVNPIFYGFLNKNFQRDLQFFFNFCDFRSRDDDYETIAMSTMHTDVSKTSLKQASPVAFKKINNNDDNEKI
The class given is cell membranes, Membrane. The settings on record: sk-n-mc.

The target in series [7] is T4, Cytochrome P450 2A6 (Homo sapiens, UniProt P11509). Further: in other assays of this panel Not Active means under 50% inhibition at 10 µM.
T4 sequence (P11509 whole entry): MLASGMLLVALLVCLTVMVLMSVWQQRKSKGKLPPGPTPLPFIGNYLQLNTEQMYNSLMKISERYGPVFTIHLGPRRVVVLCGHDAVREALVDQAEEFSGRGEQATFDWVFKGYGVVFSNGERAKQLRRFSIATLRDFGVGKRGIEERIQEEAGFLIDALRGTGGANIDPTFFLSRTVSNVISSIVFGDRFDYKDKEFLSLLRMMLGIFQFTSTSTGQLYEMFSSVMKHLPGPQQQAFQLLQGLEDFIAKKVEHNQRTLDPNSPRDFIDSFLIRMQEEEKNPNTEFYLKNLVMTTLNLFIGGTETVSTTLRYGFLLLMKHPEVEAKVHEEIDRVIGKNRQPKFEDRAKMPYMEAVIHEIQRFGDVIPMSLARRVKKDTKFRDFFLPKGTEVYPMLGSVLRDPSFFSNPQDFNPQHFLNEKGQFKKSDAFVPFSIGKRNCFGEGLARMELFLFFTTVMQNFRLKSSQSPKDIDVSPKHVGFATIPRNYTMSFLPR
As to conditions: bti-tn-5b1-4.

Series [8] has as its target Estrogen receptor beta (Homo sapiens, UniProt Q92731). As to conditions: sf9. Further: in other assays of this panel Not Active means under 50% inhibition at 10 µM.

5-hydroxytryptamine receptor 4, sequence (O70528 whole entry): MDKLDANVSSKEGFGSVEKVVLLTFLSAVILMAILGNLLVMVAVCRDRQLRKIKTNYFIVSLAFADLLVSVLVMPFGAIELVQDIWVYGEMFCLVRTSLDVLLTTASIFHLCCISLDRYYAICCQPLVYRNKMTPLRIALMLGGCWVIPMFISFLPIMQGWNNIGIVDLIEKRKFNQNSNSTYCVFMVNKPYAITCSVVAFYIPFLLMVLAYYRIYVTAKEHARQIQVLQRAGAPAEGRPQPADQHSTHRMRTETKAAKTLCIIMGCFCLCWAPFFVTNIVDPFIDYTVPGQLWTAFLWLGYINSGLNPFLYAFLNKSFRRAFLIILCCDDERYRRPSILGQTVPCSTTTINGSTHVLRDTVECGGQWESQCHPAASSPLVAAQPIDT
Estrogen receptor beta, sequence (Q92731 whole entry): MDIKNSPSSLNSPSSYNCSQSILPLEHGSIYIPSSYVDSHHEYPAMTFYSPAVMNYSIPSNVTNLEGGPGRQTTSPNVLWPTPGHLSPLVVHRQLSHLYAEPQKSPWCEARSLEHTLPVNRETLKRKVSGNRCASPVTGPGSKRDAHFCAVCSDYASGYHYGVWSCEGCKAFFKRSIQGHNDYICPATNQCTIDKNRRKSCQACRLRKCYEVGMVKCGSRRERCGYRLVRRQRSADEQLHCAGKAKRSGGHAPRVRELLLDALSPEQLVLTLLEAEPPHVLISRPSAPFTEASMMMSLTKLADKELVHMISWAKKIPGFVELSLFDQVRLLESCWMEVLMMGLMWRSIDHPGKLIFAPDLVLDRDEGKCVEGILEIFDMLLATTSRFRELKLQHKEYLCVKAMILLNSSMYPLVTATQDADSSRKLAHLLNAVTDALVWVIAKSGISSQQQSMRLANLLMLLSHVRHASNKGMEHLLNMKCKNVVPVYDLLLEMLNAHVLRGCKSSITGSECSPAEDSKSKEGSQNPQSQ

With `COc1ccc(CCN(C)CCCC(C#N)(c2ccc(OC)c(OC)c2)C(C)C)cc1OC` (configuration not stated), the IC50 entry in series [1], in series [2] (platelet), in series [3], in series [4], in series [5] and in series [6] was “Not Active” throughout. For the same compound, the IC50 entry in series [7] and in series [8] was “Not Active” throughout. Moreover, the Ki entry in series [5] and in series [7] was “Not Active” in each case.
On to `CC(C)Cc1ccc([C@@H](C)C(=O)O)cc1` [(R)-IBUPROPHEN], for which the IC50 entry in series [1], in series [2] (platelet), in series [3], in series [4], in series [5] and in series [6] was “Not Active” in each case. Moreover, the IC50 entry in series [7] and in series [8] was “Not Active” throughout. The Ki result in series [5] and in series [7] was “Not Active” each time.
Turning to `Fc1ccc(C(c2ccc(F)cc2)N2CCN(C/C=C/c3ccccc3)CC2)cc1` [FLUNARIZINE], the IC50 entry in series [1], in series [2] (platelet), in series [3], in series [4], in series [6] and in series [7] was “Not Active” in each case. Also, in series [8], the IC50 result is “Not Active”. The Ki result in series [7] is “Not Active”.
Regarding `CNCCC(Oc1ccc(C(F)(F)F)cc1)c1ccccc1` (configuration not stated) [FLUOXETINE], the IC50 entry in series [1], in series [2] (platelet), in series [3], in series [4], in series [6] and in series [7] was “Not Active” each time. The IC50 entry in series [8] is recorded as “Not Active”. In addition, the Ki entry in series [7] is recorded as “Not Active”.
`Cc1ccc(NC(=O)c2ccc(CN3CCN(C)CC3)cc2)cc1Nc1nccc(-c2cccnc2)n1` [IMATINIB]: the IC50 entry in series [1] is “Not Active”; in series [2] (read-out: IC50), 198 nM; in series [3] it was “Not Active”; in series [4], “Not Active”; in series [6], “Not Active”; in series [7], “Not Active”. Further, the IC50 result in series [8] is given as “Not Active”. In series [7], the Ki entry is recorded as “Not Active”.
On to `CC(C)NCC(O)c1ccc(O)c(O)c1` (configuration not stated) [ISOPROTERENOL], for which the IC50 entry in series [1], in series [2] (platelet), in series [3], in series [4], in series [5] and in series [6] was “Not Active” throughout. Besides, the IC50 result in series [7] and in series [8] was “Not Active” each time. In addition, the Ki result in series [5] and in series [7] was “Not Active” in each case.
Turning to `CNC1(c2ccccc2Cl)CCCCC1=O` (configuration not stated) [KETAMINE], the IC50 result in series [1], in series [2] (platelet), in series [3], in series [4], in series [5] and in series [6] was “Not Active” in each case. The IC50 result in series [7] and in series [8] was “Not Active” throughout. In addition, the Ki entry in series [5] and in series [7] was “Not Active” throughout.
Take `N#Cc1ccc(C(c2ccc(C#N)cc2)n2cncn2)cc1` [LETROZOLE]: the IC50 entry in series [1], in series [2] (platelet), in series [3], in series [4], in series [5] and in series [6] was “Not Active” each time. For the same compound, the IC50 result in series [7] and in series [8] was “Not Active” throughout. Also, the Ki entry in series [5] and in series [7] was “Not Active” in each case.
`CCN1CCC[C@H]1CNC(=O)c1cc(S(N)(=O)=O)ccc1OC` [LEVOSULPIRIDE]: the IC50 entry in series [1], in series [2] (platelet), in series [3], in series [4], in series [5] and in series [6] was “Not Active” each time. For the same compound, the IC50 result in series [7] and in series [8] was “Not Active” in each case. In addition, the Ki entry in series [5] and in series [7] was “Not Active” each time.
Regarding `CCN(CC)CC(=O)Nc1c(C)cccc1C` [LIDOCAINE], the IC50 entry in series [1], in series [2] (platelet), in series [3], in series [4], in series [5] and in series [6] was “Not Active” in each case. In addition, the IC50 entry in series [7] and in series [8] was “Not Active” each time. Moreover, the Ki entry in series [5] and in series [7] was “Not Active” in each case.
On to `O=C1Nc2ccc(Cl)cc2C(c2ccccc2Cl)=NC1O` (configuration not stated) [LORAZEPAM], for which the IC50 entry in series [1], in series [2] (platelet), in series [3], in series [4], in series [5] and in series [6] was “Not Active” in each case. Moreover, the IC50 result in series [7] and in series [8] was “Not Active” in each case. Further, the Ki result in series [5] and in series [7] was “Not Active” throughout.
Consider `COc1c2occc2cc2ccc(=O)oc12` [METHOXSALEN], for which the IC50 entry in series [1], in series [2] (platelet), in series [3], in series [4], in series [5] and in series [6] was “Not Active” throughout. Also, the IC50 entry in series [7] and in series [8] was “Not Active” each time. The Ki result in series [5] and in series [7] was “Not Active” throughout.
Regarding `Nc1cc(N2CCCCC2)nc(N)[n+]1[O-]` [MINOXIDIL], the IC50 result in series [1], in series [2] (platelet), in series [3], in series [4], in series [5] and in series [6] was “Not Active” each time. Moreover, the IC50 entry in series [7] and in series [8] was “Not Active” in each case. Also, the Ki entry in series [5] and in series [7] was “Not Active” each time.
Take `CO[C@H]1/C=C/O[C@@]2(C)Oc3c(C)c(O)c4c(O)c(c(/C=N/N5CCN(C6CCCC6)CC5)c(O)c4c3C2=O)NC(=O)/C(C)=C\C=C\[C@H](C)[C@H](O)[C@@H](C)[C@@H](O)[C@@H](C)[C@H](OC(C)=O)[C@@H]1C` [RIFAPENTINE]: the IC50 entry in series [1], in series [2] (platelet), in series [3], in series [4], in series [5] and in series [6] was “Not Active” in each case. For the same compound, the IC50 result in series [7] and in series [8] was “Not Active” each time. Moreover, the Ki entry in series [5] and in series [7] was “Not Active” in each case.
As for `CN[C@H]1CC[C@@H](c2ccc(Cl)c(Cl)c2)c2ccccc21` [SERTRALINE], the IC50 entry in series [1], in series [2] (platelet), in series [3], in series [4], in series [6] and in series [7] was “Not Active” each time. The IC50 result in series [8] is reported as “Not Active”. The Ki result in series [7] is recorded as “Not Active”.
